Entries after “also recorded” stand apart in the source; their conditions may differ. Read-outs that look alike come from different tables or passages of the source.

The test system of data set [1] is His-DrCK1ε. The data set is described as follows: in vitro kinase assay, α-casein phosphorylation with [γ-32P]-ATP, standard conditions. The data set is classed as biochemical, zebrafish (Danio rerio). The protocol: (§1) Each in vitro kinase reaction was performed in a total volume of 15 µL containing 25 mM Tris-HCl (pH 7.0), 10 mM MgCl2, 100 µM EDTA, 2.8 µM of the substrate α-casein and 0.4 pmol [γ-^32P]-ATP at 30°C. […] Reactions were stopped by adding 3 µL of 5x SDS loading buffer and incubating at 95°C for 5 min. Proteins were separated by SDS-PAGE and stained with Coomassie Brilliant Blue R250 (Waldeck GmbH & Co. KG, Muenster, Germany). Autoradiography visualized the incorporation of radioactively labelled γ-phosphate into the proteins. A quantitative analysis of the radioactive signal was performed by excising the proteins from dried gels and measuring phosphate incorporation via Cherenkov counting (Beckmann Scintillation Counter). For the determination of the initial velocity region, a linear regression was performed. Thereby, the number of included data-points was decreased stepwise, and the point of time with the highest maximum coefficient of determination (R ^2) was chosen as the kinase-specific standard reaction time. For determination of the maximal velocity (Vmax) and Michaelis constant (Km) of ATP, various ATP concentrations in a range from 0.5 to 250 µM were tested. Raw data was used for the calculation of enzyme velocity (V) in [pmol/min]. Then, V was plotted over substrate (ATP) concentration and fitted to the Michaelis-Menten model via GraphPad Prism 8 (GraphPad Software, La Jolla, CA, United States). According to the Michaelis-Menten curve, Km, which is the concentration of the substrate, that is needed to obtain half Vmax, was calculated. For determination of IC50 values, the scintillation data measured in cpm was transformed to pmol of transferred phosphate. The data was then transformed logarithmically (X = log(X)), normalized to DMSO (100%) and zero (0%) before fitting to sigmoidal dose-response curves with variable slope with nonlinear regression using GraphPad Prism 7.
(§2) In compliance with the established standard conditions the kinase assays were performed in the presence of 20 µM of the respective inhibitor (Figure 7).

For data set [2], the target named is T1, GST-humCK1δ^TV1 (Homo sapiens, UniProt P48730).
T1 construct: made in house; host or cells: E. coli Rosetta 2 (DE3)
Further details: method as in Roth et al., 2021. Particulars: previously established, ref Roth et al., 2021; read-out: Km(ATP); cited from earlier work.

The target of data set [3] is T2, GST-CK1ε (Homo sapiens, UniProt P49674).
T2 construct: made in house; host or cells: E. coli Rosetta 2 (DE3)
The data set is described as follows: in vitro kinase assay, α-casein phosphorylation with [γ-32P]-ATP, standard conditions. Format: biochemical. The protocol:
as §1, §2

In data set [4] the target is T3, His-DrCK1δA (Danio rerio, UniProt Q7T2E3).
T3 construct: made in house; host or cells: E. coli Rosetta 2 (DE3)
T3 sequence (Q7T2E3 1-403): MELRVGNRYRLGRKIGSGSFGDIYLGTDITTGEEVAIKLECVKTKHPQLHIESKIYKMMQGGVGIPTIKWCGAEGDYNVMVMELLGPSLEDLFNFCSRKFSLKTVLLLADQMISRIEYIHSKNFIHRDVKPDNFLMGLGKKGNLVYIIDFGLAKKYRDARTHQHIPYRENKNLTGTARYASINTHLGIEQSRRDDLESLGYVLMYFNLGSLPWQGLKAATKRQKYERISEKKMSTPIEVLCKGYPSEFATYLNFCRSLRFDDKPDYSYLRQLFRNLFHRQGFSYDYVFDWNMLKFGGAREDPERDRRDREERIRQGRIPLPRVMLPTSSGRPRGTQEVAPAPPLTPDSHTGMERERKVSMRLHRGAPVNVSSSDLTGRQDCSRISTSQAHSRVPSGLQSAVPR
Described as above. Format: biochemical, zebrafish (Danio rerio). The protocol: as §1, §2
(§3) Next, in vitro kinase assays were performed in absence and presence of the respective SMI at different concentrations (ranging from 13 to 26667 nM). The kinase activity of the inhibitor-treated samples was normalized to the DMSO-control and plotted against the inhibitor concentration (Figure 10).

Data set [5] has as its target T4, His-DrCK1δB (Danio rerio, UniProt Q6P3K7).
T4 construct: made in house; host or cells: E. coli Rosetta 2 (DE3)
T4 sequence (Q6P3K7 1-409): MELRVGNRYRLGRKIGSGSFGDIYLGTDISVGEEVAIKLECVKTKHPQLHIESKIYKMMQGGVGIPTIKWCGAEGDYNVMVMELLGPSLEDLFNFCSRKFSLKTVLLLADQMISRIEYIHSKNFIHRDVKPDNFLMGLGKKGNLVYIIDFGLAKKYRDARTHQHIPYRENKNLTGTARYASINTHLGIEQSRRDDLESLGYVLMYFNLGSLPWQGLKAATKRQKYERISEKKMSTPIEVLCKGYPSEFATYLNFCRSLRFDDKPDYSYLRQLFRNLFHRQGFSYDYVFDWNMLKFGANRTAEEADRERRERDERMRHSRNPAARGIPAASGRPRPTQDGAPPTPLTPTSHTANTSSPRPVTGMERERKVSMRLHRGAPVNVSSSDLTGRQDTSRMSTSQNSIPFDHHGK
Described as above. The data set is classed as biochemical, zebrafish (Danio rerio). The protocol: as §1, §2, §3

Data set [6] deals with CK1δ. Further details: method as in Bischof et al., 2012; Bibian et al., 2013. Particulars: ref Bischof et al., 2012; Bibian et al., 2013; cited from earlier work.
Data set [7] relates to zebrafish embryos. Particulars: for phenotype of treated zebrafish embryos: 24 to 72 hpf (48 h).
Procedure: The TüAB wildtype strain was used for all experiments. […] Zebrafish embryos were dechorionated at 24 h post fertilization (hpf) and treated with the respective concentration of inhibitor, dissolved in DMSO (Sigma-Aldrich, Stadt, Land) and diluted in E3 medium (5 mM NaCl, 0.17 mM KCl, 0.33 mM CaCl2, 0.33 mM MgSO4, 0.6 µM Methylene Blue dissolved in water). DMSO served as solvent control. Embryos were treated from 24 hpf until 72 hpf, the compound solution was renewed daily. Pictures and movies were recorded at 48 and 72 hpf. […] Pictures were taken on an Olympus stereo microscope SZX16 and movies were recorded on an inverse Leica stereo microscope DM IL LED Fluo equipped with a FLEXACAM C1.
Embryos were dechorionated at 24 hpf and treated with 20 µM of the respective inhibitor (Figure 6A).
The target of data set [8] is M28FCK1δ (rat) (Rattus norvegicus, UniProt Q06486, M82F). The data set is described as follows: initial IC50 determination in in vitro kinase assays, prior to standardization. Format: biochemical.
The target of data set [9] is CK1ε (Homo sapiens, UniProt P49674). The description is as above. Format: biochemical. The protocol:
(§4) The SMIs used in this study (summarized in Supplementary Table S2) were selected based on their inhibitory capacity toward CK1δ in vitro, whereby a broad range of inhibitors with varying efficiency were included. The determination of IC50-values was conducted prior to the standardization workflow establishment. Zebrafish embryos treated with 20 µM of the respective compound were phenotypically analyzed.
(§5) Supplementary Table 6: List of the inhibitors that were selected for the in vivo screening of zebrafish embryonic development. The compounds were selected based on their ability to inhibit CK1δ in in vitro kinase assays. The initial IC50-values were determined prior to the establishment of the standardized in vitro kinase assay protocol. The Supplementary Table summarizes, whether the zebrafish embryos presented an abnormal phenotype upon inhibitor treatment. The inhibitors were added to the zebrafish medium in a concentration of 20 µM.

Data set [10] addresses CK1δ (rat) (Rattus norvegicus, UniProt Q06486). The data set is described as above. Format: biochemical. Particulars: not published. The protocol: as §4, §5
The target in data set [11] is T5, CK1δ (TV2) (Homo sapiens, UniProt P48730).
T5 sequence (P48730 1-409 isoform P48730-2): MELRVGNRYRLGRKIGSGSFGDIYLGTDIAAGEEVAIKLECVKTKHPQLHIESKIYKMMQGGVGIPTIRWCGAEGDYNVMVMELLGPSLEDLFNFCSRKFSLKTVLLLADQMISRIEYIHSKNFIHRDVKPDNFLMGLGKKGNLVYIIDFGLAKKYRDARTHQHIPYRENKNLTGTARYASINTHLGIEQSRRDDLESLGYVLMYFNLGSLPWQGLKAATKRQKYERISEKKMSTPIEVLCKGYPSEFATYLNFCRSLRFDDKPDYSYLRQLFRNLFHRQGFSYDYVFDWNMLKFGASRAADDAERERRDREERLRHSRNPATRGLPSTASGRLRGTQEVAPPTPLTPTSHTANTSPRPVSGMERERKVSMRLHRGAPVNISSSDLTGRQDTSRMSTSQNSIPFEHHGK
The description is as above. Format: biochemical. Particulars: not published. The protocol: as §4, §5

Data set [12] addresses CK1δ (TV1) (Homo sapiens, UniProt P48730). Described as above. The data set is classed as biochemical. Particulars: not published. The protocol: as §4, §5
The test system of data set [13] is CK1δ. Particulars: prior to standardization, ref Liu et al., 2019; cited from earlier work.
Data set [14] deals with T1, GST-humCK1δ^TV1. The data set is described as follows: in vitro kinase assay, α-casein phosphorylation with [γ-32P]-ATP, standard conditions. Format: biochemical. On the procedure: as §1, §2, §3
In data set [15] the test system is zebrafish PKCα. More on the design: method as in Qiao et al., 2021. Particulars: ref Qiao et al., 2021; cited from earlier work.
Data set [16] relates to human PKCα. More on the design: method as in Qiao et al., 2021. Particulars: ref Qiao et al., 2021; cited from earlier work.
The test system of data set [17] is csnk1da (CK1δA). The data set is described as follows: morpholino knockdown in zebrafish embryos, phenotype. The data set is classed as in vivo, zebrafish (D. rerio). Particulars: 400 µM injected, 72 hpf. From the text: The TüAB wildtype strain was used for all experiments. […] DMSO served as solvent control. […] Embryos were immobilized in 2.5% methylcellulose.

The mark [18] stands for this setting: Michaelis-Menten, ATP 0.5-250 µM.
Setting [19] is: not published, read-out: IC50 values wtCK1ε.
Setting [20] is: 20 µM inhibitor, normalized to DMSO control.
Where [21] appears, read: inhibitor 13 to 26667 nM, ATP at Km, normalized to DMSO.
Where [22] appears, read: resulting from IC50 (Cheng-Prusoff, ATP at Km).

T1 sequence (P48730 whole entry): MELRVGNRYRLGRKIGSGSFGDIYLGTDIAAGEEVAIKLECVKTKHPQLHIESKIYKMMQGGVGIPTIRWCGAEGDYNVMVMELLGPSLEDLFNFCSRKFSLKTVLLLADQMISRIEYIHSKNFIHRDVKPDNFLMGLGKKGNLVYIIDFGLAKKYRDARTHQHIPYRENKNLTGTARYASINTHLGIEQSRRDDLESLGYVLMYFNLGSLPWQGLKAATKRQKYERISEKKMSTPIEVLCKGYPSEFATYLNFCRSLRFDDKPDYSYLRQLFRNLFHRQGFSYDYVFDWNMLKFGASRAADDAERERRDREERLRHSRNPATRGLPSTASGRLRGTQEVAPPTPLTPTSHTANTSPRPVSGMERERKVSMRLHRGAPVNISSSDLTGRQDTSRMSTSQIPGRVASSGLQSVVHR
Chain of CK1ε (P49674 whole entry): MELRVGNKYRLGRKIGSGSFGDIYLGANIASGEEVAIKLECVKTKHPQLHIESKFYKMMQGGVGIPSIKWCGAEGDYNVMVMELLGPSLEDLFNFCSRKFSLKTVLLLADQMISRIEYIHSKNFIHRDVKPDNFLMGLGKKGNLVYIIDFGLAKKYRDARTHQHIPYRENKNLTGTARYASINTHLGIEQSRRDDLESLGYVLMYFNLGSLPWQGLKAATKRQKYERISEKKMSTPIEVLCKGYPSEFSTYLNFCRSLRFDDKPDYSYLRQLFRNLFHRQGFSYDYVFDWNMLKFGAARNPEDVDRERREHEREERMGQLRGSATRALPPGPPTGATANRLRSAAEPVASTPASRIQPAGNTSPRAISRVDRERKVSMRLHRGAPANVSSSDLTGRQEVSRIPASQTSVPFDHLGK
Chain of CK1δ (rat) (Q06486 whole entry): as the sequence (P48730 whole entry) above, with I381V counted along it
T2 sequence (P49674 whole entry): as the sequence (P49674 whole entry) above
Chain of M28FCK1δ (rat) (Q06486 whole entry M82F): as the sequence (P48730 whole entry) above, with M82F, I381V counted along it
Chain of CK1δ (TV1) (P48730 whole entry): as the sequence (P48730 whole entry) above

`Nc1ncnc2c1ncn2[C@@H]1O[C@H](COP(=O)(O)OP(=O)(O)OP(=O)(O)O)[C@@H](O)[C@H]1O` [ATP]: the Km in data set [1] (setting [18]) was 14.5 µM; in data set [2], 6 µM; in [3] (setting [18]), 15.4 µM; in data set [4] (setting [18]), 12 µM; in data set [5] (setting [18]) it was 5.31 µM.
In the case of `O=C(Nc1nc2ccc(C(F)(F)F)cc2[nH]1)c1csc(NC(=O)c2ccccc2OC(F)(F)F)n1` [Bischof-5], the “50% inhibitory concentration (IC50) values” in [6] is reported as “double-digit nanomolar range”.
As for `COc1cc(Cn2c(SCC(=O)Nc3nc4ccc(C(F)(F)F)cc4s3)nc3c(c2=O)SCC3)cc(OC)c1` [G1-4, 2-((3-(3,5-Dimethoxybenzyl)-4-oxo-3,4,6,7-tetrahydrothieno[3,2-d]pyrimidin-2-yl)thio)-N-(6-(trifluormethyl)benzo [d]thiazol-2-yl)acetamid], in data set [7] (zebrafish, in vivo), the Phenotypic changes entry is “None observed”. Besides, in data set [7] (zebrafish, in vivo), the “Phenotypic changes (with severity) after treatment of zebrafish embryos with 20 µM inhibitor” value (from here on “Phenotypic changes … with 20 µM inhibitor”) is reported as “No”. The IC50 in [8] (prior to standardization, not published, read-out: IC50 values M28FCK1δ (rat)) amounted to 160 nM; in data set [9] (setting [19]) it was 3200 nM; in data set [10], 380 nM.
Turning to `CC(C)n1c(SCC(=O)Nc2nc3ccc(C(F)(F)F)cc3s2)nc2c(c1=O)SCC2` [G1-5, 2-((3-Isopropyl-4-oxo-3,4,6,7-tetrahydrothieno[3,2-d]pyrimidin-2-yl)thio)-N-(6-(trifluormethyl)benzo [d]thiazol-2-yl)acetamid], in [7] (20 µM in medium, from 24 hpf), the “Phenotypic changes … with 20 µM inhibitor” value was “Yes (mild)”. In addition, the “phenotype of treated zebrafish embryos” value in data set [7] (20 µM) is “weak effect on heart development and function with a mild bradycardia and reduced heart rate; also recorded: a curved tail”. Moreover, the IC50 was 120 nM in data set [8]; 780 nM in [9] (setting [19]); 510 nM in data set [11]; 160 nM in data set [10]; 380 nM in [12].
`O=C(CSc1nccc(=O)n1Cc1ccc(C(F)(F)F)cc1)Nc1nc2ccc(C(F)(F)F)cc2s1` [G2-2]: the IC50 in [13] is 120 nM; in [4] (setting [21]) it was 345 nM; in data set [5] (setting [21]) it was 270 nM; in [14] (setting [21]), 503 nM; in data set [9] (marked * not published, read-out: IC50 values CK1ε), 926 nM. Further, the “mean residual kinase activity ± SD” value is recorded as 10.5 ± 3.0% in [1] (setting [20]); 11.9 ± 2.0% in data set [3] (setting [20]); 12.1 ± 3.9% in data set [4] (setting [20]); 16.1 ± 9.5% in data set [5] (setting [20]); 8.4 ± 1.1% in [14] (setting [20]). For the same compound, the “phenotype of treated zebrafish embryos” value is “cardiac phenotype, with bradycardia and blood congestion” in data set [7] (5 µM); “did not pump blood; also recorded: reduced heart function; also recorded: blood congestion and pericardial edema” in data set [7] (10 µM); “strong cardiac phenotype, with blood congestion, a strong bradycardia and partially total loss of heart beat; also recorded: severe effects on the embryonic development, with strong bradycardia and blood congestion; also recorded: blood congestions; also recorded: pericardial edema” in data set [7] (20 µM); “dead and highly toxic, and all treated embryos were dead after 48 h of treatment” in data set [7] (40 µM). The “Phenotypic changes … with 20 µM inhibitor” value in data set [7] (20 µM in medium, from 24 hpf) is “Yes (severe)”. The “concentration that induced necrosis” value in data set [7] (48 h of incubation, doses 5, 10, 20 and 40 µM) came out at 40 µM. In addition, the lethality to embryos result in [7] (at concentrations of 20 and 40 μM) is given as “lethal”. Besides, the Ki in data set [4] (setting [22]) came to 173 nM; in [5] (setting [22]), 135 nM; in data set [14] (setting [22]) it was 251 nM.
On to `O=S(=O)(NCCNC/C=C/c1ccc(Br)cc1)c1cccc2cnccc12` [H89], for which the IC50 in data set [15] is 49800 nM; in data set [16], 31200 nM.
As to `Fc1cccc(-n2cnc3c(NCc4nc5c(F)c(F)ccc5[nH]4)nc(N4CCOCC4)nc32)c1` [SR-3029], in data set [6], the “50% inhibitory concentration (IC50) values” is given as “double-digit nanomolar range”.
As to “csnk1da: morpholino-modified antisense oligonucleotide targeting the translational start site of csnk1da, 5′-TCGGTTTCCTACTCTCAATTCCATG-3′ (all phosphorodiamidate morpholino (PMO))”, in data set [17], the “phenotype of morpholino injected embryos” value is on record as “reduced heart function resulting in blood congestion; also recorded: cardiac malfunction”.

These data come from paper PMC10518421, “Zebrafish as model system for the biological characterization of CK1 inhibitors” (Frontiers in Pharmacology, 2023).
